We go through 22 compounds from BindingDB's records for doi:10.1021/np200036v (National Engineering Research Center For The Emergency …, 2020).

Assay [1] addresses Receptor-type tyrosine-protein phosphatase beta (Homo sapiens, UniProt P23467). Description: Inhibition of recombinant human PTPbeta using DiFMUP as substrate preincubated for 10 mins followed by substrate addition and measured after 2 hrs.
Assay [2] has as its target T1, Tyrosine-protein phosphatase non-receptor type 11 (Homo sapiens, UniProt Q06124).
T1 sequence (Q06124 whole entry): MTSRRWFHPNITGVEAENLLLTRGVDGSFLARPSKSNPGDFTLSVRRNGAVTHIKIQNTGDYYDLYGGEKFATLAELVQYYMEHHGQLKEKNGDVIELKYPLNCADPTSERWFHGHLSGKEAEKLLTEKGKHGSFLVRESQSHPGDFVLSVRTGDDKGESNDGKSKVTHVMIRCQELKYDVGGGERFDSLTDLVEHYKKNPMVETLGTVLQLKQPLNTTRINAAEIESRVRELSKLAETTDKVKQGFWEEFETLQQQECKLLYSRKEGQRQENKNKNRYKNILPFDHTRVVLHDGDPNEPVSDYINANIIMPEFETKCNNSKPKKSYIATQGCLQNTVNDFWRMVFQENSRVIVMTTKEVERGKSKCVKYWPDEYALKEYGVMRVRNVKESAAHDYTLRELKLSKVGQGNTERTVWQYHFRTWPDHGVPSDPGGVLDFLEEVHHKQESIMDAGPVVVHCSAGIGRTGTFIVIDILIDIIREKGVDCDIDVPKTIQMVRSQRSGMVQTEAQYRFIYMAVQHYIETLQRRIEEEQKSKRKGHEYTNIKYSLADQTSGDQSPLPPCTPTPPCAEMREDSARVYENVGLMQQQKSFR
In words: Inhibition of recombinant SHP2 (unknown origin).

Assay [3] addresses T2, Tyrosine-protein phosphatase non-receptor type 1 (Homo sapiens, UniProt P18031).
T2 sequence (P18031 whole entry): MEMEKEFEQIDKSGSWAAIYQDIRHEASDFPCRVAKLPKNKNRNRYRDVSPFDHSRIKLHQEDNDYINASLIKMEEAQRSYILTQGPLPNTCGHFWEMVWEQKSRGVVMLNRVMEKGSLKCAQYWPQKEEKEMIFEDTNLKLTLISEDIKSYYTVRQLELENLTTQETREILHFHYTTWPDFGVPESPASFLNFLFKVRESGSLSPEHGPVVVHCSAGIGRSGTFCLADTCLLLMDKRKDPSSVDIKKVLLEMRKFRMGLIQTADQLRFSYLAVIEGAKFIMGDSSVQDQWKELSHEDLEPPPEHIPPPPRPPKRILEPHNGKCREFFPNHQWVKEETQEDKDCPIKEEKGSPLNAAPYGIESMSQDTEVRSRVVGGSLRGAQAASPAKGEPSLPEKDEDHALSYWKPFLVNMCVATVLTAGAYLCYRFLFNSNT
Description: Inhibition of recombinant PTP1B (unknown origin).

The target in assay [4] is T3, Tyrosine-protein phosphatase non-receptor type 2 (Homo sapiens, UniProt P17706).
T3 sequence (P17706 whole entry): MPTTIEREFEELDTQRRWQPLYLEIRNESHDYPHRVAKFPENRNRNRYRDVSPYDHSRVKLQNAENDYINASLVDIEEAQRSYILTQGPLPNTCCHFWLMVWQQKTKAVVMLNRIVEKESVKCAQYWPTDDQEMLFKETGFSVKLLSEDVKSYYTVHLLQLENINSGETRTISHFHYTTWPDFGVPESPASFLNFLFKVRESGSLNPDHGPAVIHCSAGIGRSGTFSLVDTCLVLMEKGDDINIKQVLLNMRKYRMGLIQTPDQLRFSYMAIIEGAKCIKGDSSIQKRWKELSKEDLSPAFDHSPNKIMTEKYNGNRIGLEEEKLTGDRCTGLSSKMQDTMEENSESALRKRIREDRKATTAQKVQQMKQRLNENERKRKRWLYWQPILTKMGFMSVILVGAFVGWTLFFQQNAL
In words: Inhibition of recombinant TC-PTP (unknown origin).

Assay [5] addresses Receptor-type tyrosine-protein phosphatase F (Homo sapiens, UniProt P10586). Description: Inhibition of recombinant LAR (unknown origin).

What is called IC50 is the concentration that inhibits the measured activity by half.

Sequence of Receptor-type tyrosine-protein phosphatase F (P10586 whole entry): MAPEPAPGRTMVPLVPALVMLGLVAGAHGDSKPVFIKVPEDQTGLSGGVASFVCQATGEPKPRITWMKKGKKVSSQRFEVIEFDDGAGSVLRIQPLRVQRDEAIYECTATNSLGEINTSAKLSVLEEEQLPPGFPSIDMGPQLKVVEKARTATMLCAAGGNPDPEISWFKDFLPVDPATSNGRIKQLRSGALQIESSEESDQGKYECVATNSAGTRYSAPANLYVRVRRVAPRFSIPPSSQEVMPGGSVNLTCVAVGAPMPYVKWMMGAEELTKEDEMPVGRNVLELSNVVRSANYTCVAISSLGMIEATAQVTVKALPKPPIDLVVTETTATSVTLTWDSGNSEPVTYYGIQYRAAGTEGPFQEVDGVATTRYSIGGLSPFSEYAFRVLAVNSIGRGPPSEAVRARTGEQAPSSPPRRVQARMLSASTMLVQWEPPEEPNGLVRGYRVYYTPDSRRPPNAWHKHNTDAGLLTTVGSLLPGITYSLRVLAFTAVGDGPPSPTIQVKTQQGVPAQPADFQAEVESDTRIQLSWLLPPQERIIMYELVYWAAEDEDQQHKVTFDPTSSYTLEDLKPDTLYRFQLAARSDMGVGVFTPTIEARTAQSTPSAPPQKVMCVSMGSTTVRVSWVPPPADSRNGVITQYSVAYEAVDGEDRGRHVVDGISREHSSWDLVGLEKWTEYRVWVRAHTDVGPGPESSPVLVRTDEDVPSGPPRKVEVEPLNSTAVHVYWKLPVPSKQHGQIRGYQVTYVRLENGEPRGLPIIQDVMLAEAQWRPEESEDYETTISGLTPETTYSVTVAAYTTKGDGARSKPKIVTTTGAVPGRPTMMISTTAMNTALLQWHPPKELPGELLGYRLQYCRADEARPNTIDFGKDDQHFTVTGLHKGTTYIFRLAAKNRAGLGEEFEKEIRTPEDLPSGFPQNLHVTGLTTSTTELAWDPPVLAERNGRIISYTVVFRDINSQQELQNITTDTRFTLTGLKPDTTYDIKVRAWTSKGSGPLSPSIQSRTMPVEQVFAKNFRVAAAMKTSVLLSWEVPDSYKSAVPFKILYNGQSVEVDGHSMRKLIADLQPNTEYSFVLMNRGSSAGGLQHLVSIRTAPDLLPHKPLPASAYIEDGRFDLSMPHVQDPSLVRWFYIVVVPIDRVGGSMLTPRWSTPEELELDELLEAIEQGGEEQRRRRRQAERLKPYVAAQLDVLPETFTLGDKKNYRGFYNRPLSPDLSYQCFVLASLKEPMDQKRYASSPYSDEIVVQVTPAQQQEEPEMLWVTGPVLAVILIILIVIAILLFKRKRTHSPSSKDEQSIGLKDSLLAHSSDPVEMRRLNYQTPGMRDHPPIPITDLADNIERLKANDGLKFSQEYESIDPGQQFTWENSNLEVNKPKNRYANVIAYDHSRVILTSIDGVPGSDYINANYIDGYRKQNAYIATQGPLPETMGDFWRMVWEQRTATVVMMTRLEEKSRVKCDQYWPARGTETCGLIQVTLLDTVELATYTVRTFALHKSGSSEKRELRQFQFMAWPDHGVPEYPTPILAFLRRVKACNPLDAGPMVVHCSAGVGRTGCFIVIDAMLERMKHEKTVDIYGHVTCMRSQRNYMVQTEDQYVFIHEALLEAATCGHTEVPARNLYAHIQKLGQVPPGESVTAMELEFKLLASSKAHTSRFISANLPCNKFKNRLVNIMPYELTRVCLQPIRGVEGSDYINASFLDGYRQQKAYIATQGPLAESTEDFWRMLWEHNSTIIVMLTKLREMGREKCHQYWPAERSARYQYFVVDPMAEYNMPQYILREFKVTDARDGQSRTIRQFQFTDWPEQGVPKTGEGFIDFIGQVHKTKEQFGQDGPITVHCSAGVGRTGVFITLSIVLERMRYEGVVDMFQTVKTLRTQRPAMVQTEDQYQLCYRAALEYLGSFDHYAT
Sequence of Receptor-type tyrosine-protein phosphatase beta (P23467 whole entry): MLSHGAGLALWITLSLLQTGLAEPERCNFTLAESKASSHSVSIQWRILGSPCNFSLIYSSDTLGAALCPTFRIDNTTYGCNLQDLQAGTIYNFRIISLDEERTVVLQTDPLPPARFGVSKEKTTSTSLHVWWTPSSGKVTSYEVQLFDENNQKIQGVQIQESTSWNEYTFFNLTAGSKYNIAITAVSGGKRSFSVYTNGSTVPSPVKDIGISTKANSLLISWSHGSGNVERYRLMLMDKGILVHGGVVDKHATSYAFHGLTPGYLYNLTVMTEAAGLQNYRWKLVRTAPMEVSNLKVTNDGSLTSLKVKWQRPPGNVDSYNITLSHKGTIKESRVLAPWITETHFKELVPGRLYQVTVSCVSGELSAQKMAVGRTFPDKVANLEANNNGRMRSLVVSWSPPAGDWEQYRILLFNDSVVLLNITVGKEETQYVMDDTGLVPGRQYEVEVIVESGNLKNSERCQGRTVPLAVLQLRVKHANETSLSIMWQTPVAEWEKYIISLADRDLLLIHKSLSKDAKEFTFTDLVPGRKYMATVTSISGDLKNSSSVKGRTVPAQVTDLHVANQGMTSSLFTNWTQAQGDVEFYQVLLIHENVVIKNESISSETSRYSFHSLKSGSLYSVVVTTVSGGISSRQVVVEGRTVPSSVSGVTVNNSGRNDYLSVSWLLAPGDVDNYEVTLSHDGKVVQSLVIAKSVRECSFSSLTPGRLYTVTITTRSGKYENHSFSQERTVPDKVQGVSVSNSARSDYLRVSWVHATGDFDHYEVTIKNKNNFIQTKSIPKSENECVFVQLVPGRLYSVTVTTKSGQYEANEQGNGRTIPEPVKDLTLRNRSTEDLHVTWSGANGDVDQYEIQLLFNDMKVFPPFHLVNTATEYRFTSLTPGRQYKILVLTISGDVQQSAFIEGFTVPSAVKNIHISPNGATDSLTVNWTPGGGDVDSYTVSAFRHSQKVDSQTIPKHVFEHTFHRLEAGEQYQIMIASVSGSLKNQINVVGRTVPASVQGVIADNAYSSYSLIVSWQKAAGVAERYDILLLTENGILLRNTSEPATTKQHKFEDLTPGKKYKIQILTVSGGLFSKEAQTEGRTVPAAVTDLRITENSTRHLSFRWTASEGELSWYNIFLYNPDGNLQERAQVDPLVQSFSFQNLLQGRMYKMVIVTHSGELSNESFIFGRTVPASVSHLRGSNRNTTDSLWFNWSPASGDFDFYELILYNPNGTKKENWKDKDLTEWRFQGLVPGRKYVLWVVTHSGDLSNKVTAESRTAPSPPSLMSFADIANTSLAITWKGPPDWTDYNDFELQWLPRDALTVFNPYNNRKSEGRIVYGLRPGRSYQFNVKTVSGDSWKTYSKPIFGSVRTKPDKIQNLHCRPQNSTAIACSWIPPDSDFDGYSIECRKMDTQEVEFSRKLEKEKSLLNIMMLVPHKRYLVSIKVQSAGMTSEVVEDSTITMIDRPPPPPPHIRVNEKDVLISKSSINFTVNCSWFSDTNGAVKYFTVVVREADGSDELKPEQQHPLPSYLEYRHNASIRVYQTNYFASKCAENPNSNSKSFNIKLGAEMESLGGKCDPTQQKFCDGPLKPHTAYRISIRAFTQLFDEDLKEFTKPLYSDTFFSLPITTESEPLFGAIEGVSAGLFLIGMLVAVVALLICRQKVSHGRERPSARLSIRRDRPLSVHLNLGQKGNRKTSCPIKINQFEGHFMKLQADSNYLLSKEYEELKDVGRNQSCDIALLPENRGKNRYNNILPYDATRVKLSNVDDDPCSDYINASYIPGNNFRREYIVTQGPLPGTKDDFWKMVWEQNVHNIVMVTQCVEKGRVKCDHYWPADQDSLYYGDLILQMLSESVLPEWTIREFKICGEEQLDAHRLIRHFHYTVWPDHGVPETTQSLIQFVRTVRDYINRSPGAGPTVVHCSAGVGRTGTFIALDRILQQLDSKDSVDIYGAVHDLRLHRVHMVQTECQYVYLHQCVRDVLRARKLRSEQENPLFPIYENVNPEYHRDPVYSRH

Consider `O=C(COc1ccc(Cl)cc1Cl)N(Cc1ccc(NS(=O)(=O)O)cc1)c1ccccc1`, for which the half-maximal inhibitory concentration (IC50) in assay [1] worked out at 1.68 µM.
In the case of `O=C(Cc1cccc(F)c1)N(Cc1ccc(NS(=O)(=O)O)cc1)c1ccccc1`, in assay [1], the IC50 amounted to 1.72 µM.
The same measure, in the same setting: for `COC(=O)N[C@@H](Cc1ccccc1)C(=O)N(Cc1ccc(NS(=O)(=O)O)cc1)c1ccccc1` the value was 3.42 µM.
As to `CC(C)(C)OC(=O)N1CCC(C(=O)N(Cc2ccc(NS(=O)(=O)O)cc2)c2ccccc2)CC1`, the IC50 in assay [2] was determined as 24.7 µM; in assay [3] it was 123 µM; in assay [4], 102 µM; in assay [1], 1.45 µM; in assay [5], 112 µM.
Turning to `O=C(Cc1ccc(Br)c(F)c1)N(Cc1ccc(NS(=O)(=O)O)cc1)c1ccccc1`, in assay [1], the IC50 worked out at 1.78 µM.
On the same count and under the same terms, for `CC(C)(C)OC(=O)N1CCC(C(=O)N(Cc2ccc(NS(=O)(=O)O)cc2)c2nc(-c3ccccc3)cs2)CC1` the value was 6.4 µM.
On the same count and under the same terms, the figure for `COC(=O)N[C@@H](Cc1ccccc1)C(=O)N(Cc1ccc(NS(=O)(=O)O)cc1)c1nc(-c2ccccc2)cs1` is 3.46 µM.
Still for that read-out and setting: for `O=C(Cc1cccc(F)c1)N(Cc1ccc(NS(=O)(=O)O)cc1)c1nc(-c2ccccc2)cs1` the value was 4.1 µM.
In the case of `COC(=O)N[C@@H](Cc1ccccc1)C(=O)N(Cc1ccc(NS(=O)(=O)O)cc1)c1nc(-c2cccs2)cs1`, the IC50 in assay [1] worked out at 6.61 µM.
With `O=C(c1cccnc1Cl)N(Cc1ccc(NS(=O)(=O)O)cc1)c1nc(-c2ccccc2)cs1`, the IC50 is 19.6 µM in assay [2]; 22.2 µM in assay [3]; 32.8 µM in assay [4]; 2.98 µM in assay [1]; 42.3 µM in assay [5].
As to `O=C(c1ccccc1Cl)N(Cc1ccc(NS(=O)(=O)O)cc1)c1nc(-c2ccccc2)cs1`, in assay [1], the IC50 came to 4.67 µM.
`COc1cccc(S(=O)(=O)N(Cc2ccc(NS(=O)(=O)O)cc2)c2nc(-c3ccccc3)cs2)c1`: the IC50 in assay [2] came out at 6.41 µM; in assay [3] it was 20.5 µM; in assay [4], 31.3 µM; in assay [1], 0.968 µM; in assay [5], 34.8 µM.
Take `COc1ccc(S(=O)(=O)N(Cc2ccc(NS(=O)(=O)O)cc2)c2nc(-c3ccccc3)cs2)cc1`: the IC50 in assay [1] turned out to be 2.07 µM.
The same measure, in the same setting: the figure for `O=S(=O)(O)Nc1ccc(CN(c2nc(-c3ccccc3)cs2)S(=O)(=O)c2cccc(F)c2)cc1` is 1.24 µM; for `O=S(=O)(O)Nc1ccc(CN(c2nc(-c3ccccc3)cs2)S(=O)(=O)c2cccc(Cl)c2)cc1` it is 1.32 µM.
For `O=C(c1ccccc1Cl)N(Cc1ccc(NS(=O)(=O)O)cc1)c1nc(-c2cccs2)cs1`, in assay [1], the IC50 came to 5.94 µM.
The same measure, in the same setting: the figure for `COc1cccc(S(=O)(=O)N(Cc2ccc(NS(=O)(=O)O)cc2)c2nc(-c3cccs3)cs2)c1` is 1.41 µM.
`COc1ccc(S(=O)(=O)N(Cc2ccc(NS(=O)(=O)O)cc2)c2nc(-c3cccs3)cs2)cc1`: the IC50 in assay [1] is 1.81 µM.
On the same count and under the same terms, for `O=S(=O)(O)Nc1ccc(CN(c2nc(-c3cccs3)cs2)S(=O)(=O)c2cccc(F)c2)cc1` the value was 1.07 µM; for `O=S(=O)(O)Nc1ccc(CN(c2nc(-c3cccs3)cs2)S(=O)(=O)c2cccc(Cl)c2)cc1`, 1.75 µM.
Take `O=S(=O)(O)Nc1ccc(CNc2nc(-c3cccs3)cs2)cc1`: the IC50 in assay [2] is 25.6 µM; in assay [3], over 250 µM; in assay [4], over 250 µM; in assay [1], 0.995 µM; in assay [5], 130 µM.
Regarding `O=[N+]([O-])c1ccc(CNc2ccccc2)cc1`, the IC50 is 55.3 µM in assay [2], 15.7 µM in assay [3], 20.1 µM in assay [4] and 76.4 µM in assay [5].
